Patent US6762326B2, “C2-substituted idan-1-ones and their derivatives, processes for their preparation and their use as pharmaceuticals” (Aventis Pharma Deutschland GmbH, priority 2001, dated 2004)

System: female NMRI mice
Assay: Anorectic action: cumulative evaporated milk consumption after 24 h feed removal
Format: in vivo
Settings: versus control animals
Experimental: The anorectic action was tested on female NMRI mice. After removal of feed for 24 hours, the preparation to be tested was administered intraperitoneally (ip) or by gavage (po). The animals were housed singly and, with free access to drinking water, they were offered evaporated milk 30 minutes after administration of the preparation. The consumption of evaporated milk was determined and the general behavior of the animals was monitored every half an hour for 7 hours. The measured milk consumption was compared to that of vehicle-treated control animals.

C[S+]([O-])C1Cc2cc(Cl)ccc2C1=O (stereo not drawn) [Example 9, 5-chloro-2-methanesulfinylindan-1-one]
Reduction in cumulative milk consumption as % of the control (50 mg/kg po): 73%

CSC1Cc2cc(Cl)ccc2C1=O (stereo not drawn) [Example 1, 5-Chloro-2-methylsulfanylindan-1-one]
Reduction in cumulative milk consumption as % of the control (10 mg/kg ip): 64%

CS(=O)(=O)C1Cc2cc(Cl)ccc2C1=O (stereo not drawn) [Example 2, 5-Chloro-2-methanesulfonylindan-1-one]
Reduction in cumulative milk consumption as % of the control (20 mg/kg ip): 70%
